Several values for one entry are separate records, joined by “and”; a condition that tells them apart may be missing. Identical values can stand only once.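 Cultured in 96-well plates, cells were exposed to test compound for 48 hours across five concentrations. GI50 marks 50% less growth. The concentration for full growth arrest is given as TGI.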
Columns and labels:
Experiment in all cases: inhibition of tumour cell growth, NCI panel, 48 h
[1] = test system: MDA-MB-468 breast
[2] = test system: 786-0 renal
[3] = test system: A498 renal
[4] = test system: A549 NSCLC
[5] = test system: ACHN renal
[6] = test system: BT-549 breast
[7] = test system: CAKI-1 renal
[8] = test system: CCRF-CEM leukemia
[9] = test system: COLO 205 colon
[10] = test system: DU-145 prostate
[11] = test system: EKVX NSCLC
[12] = test system: HCC-2998 colon
[13] = test system: HCT-116 colon
[14] = test system: HCT-15 colon
[15] = test system: HL-60(TB) leukemia
[16] = test system: HOP-62 NSCLC
[17] = test system: HOP-92 NSCLC
[18] = test system: HS 578T breast
[19] = test system: HT29 colon
[20] = test system: IGROV1 ovarian
[21] = test system: K-562 leukemia
[22] = test system: KM12 colon
[23] = test system: M14 melanoma
[24] = test system: MALME-3M melanoma
[25] = test system: MCF7 breast
[26] = test system: MDA-MB-231 breast
[27] = test system: MDA-MB-435
[28] = test system: MOLT-4 leukemia
[29] = test system: NCI-H226 lung
[30] = test system: NCI-H23 lung
[31] = test system: NCI-H460 lung
[32] = test system: NCI-H522 lung
[33] = test system: NCI/ADR-RES ovarian
[34] = test system: OVCAR-3 ovarian
[35] = test system: OVCAR-4 ovarian
[36] = test system: OVCAR-5 ovarian
[37] = test system: OVCAR-8 ovarian
[38] = test system: PC-3 prostate
[39] = test system: RPMI-8226 leukemia
[40] = test system: RXF 393 renal
[41] = test system: SF-268 CNS
[42] = test system: SF-295 CNS
[43] = test system: SF-539 CNS
[44] = test system: SK-MEL-2 melanoma
[45] = test system: SK-MEL-28 melanoma
[46] = test system: SK-MEL-5 melanoma
[47] = test system: SK-OV-3 ovarian
[48] = test system: SN12C renal
[49] = test system: SNB-19 CNS
[50] = test system: SNB-75 CNS
[51] = test system: SR leukemia
[52] = test system: T-47D breast
[53] = test system: TK-10 renal
[54] = test system: U251 CNS
[55] = test system: UACC-257 melanoma
[56] = test system: UACC-62 melanoma
[57] = test system: UO-31 renal

CN1CCN(CCOc2ccc(-c3cnc4c(-c5ccccc5F)cnn4c3)cc2)CC1
GI50 [1]: 1.65 µM
TGI [1]: 3.36 µM

O=C1/C(=C/c2ccc(Br)cc2)COc2ccc(O)c(O)c21
GI50 [1]: 1.37 µM
TGI [1]: 3.2 µM

O=C(CNc1ccc(Cl)cc1)Nc1ccc(-c2nc3ccccc3s2)cc1
GI50 [1]: 0.0375 µM
TGI [1]: 0.386 µM

NC(=O)c1c(NC(=O)c2ccc(C3CCCCC3)cc2)sc2c1CCC(=O)C2
GI50 [1]: 0.297 µM
TGI [1]: 1.43 µM

CC(C)=CCNc1ncnc2c1ncn2C1OC(CO)C(O)C1O (stereo not given)
GI50 [1]: 0.37 µM
TGI [1]: 1.78 µM

CCn1c(-c2nonc2N)nc2c(C#CC(C)(C)O)nc(OC[C@H](N)c3ccccc3)cc21
GI50 [1]: 2.95 µM
TGI [1]: 6.73 µM

Cc1ccc(C)c(C2=C(c3cn(C)c4ccccc34)C(=O)NC2=O)c1
GI50 [1]: 24.3 µM
TGI [1]: > 25 µM

CC(C)=CC/C=C(/C)[C@H]1CC[C@]2(C)[C@@H]1CC[C@@H]1[C@@]3(C)CCCNC(C)(C)[C@@H]3CC[C@]12C
GI50 [1]: 1.71 µM
TGI [1]: 3.25 µM

CCC(C)n1ncn(-c2ccc(N3CCN(c4ccc(OCC5COC(Cn6cncn6)(c6ccc(Cl)cc6Cl)O5)cc4)CC3)cc2)c1=O (stereo not given)
GI50 [1]: 7.07 µM
TGI [1]: > 100 µM

O=C1NC(=O)C(c2cnc3ccccn23)=C1c1cn2c3c(cc(F)cc13)CN(C(=O)N1CCCCC1)CC2
GI50 [1]: 4.47 µM
TGI [1]: 29.9 µM

CCCCCCCCCCCCCC1=NC(C)(C)CN1C(C)C
GI50 [1]: 1.52 µM
TGI [1]: 2.94 µM

CCN(CC)CCC(CNc1ccnc2cc(Cl)ccc12)c1ccc(OC)cc1 (stereo not given)
GI50 [1]: 1.99 µM
TGI [1]: 4.77 µM and 5.3 µM

COc1ccc(C(C)=O)cc1N1C(=O)C2C(C1=O)C1(c3ccccc3)C(=O)C2(c2ccccc2)C(c2ccc(C)cc2)=C1c1ccc(C)cc1 (stereo not given)
GI50 [1]: > 100 µM
TGI [1]: > 100 µM

CCN(CC)CCCC(CNc1ccnc2cc(Cl)ccc12)c1ccc(Cl)cc1 (stereo not given)
GI50 [1]: 0.992 µM and 0.419 µM
TGI [1]: 2.55 µM and 1.49 µM

COc1ccc(/C=C(/C(=O)N2CCN(c3ccccc3)CC2)c2cc(OC)c(OC)c(OC)c2)cc1O
GI50 [1]: 0.575 µM
TGI [1]: > 100 µM

COc1ccc(CN2C(=O)/C(=C\C(=O)c3ccc(OCCN4CCCCC4)cc3)c3ccccc32)cc1
GI50 [1]: 1.7 µM
TGI [1]: 3.68 µM

O=C(Nc1nc2ccc(C(F)(F)F)cc2s1)c1cc(Cl)ccc1O
GI50 [1]: 1.4 µM
TGI [1]: 13.7 µM

CCN1CCN(C(c2ccc(C(F)(F)F)cc2)c2ccc3cccnc3c2O)CC1 (stereo not given)
GI50 [1]: 2.48 µM
TGI [1]: 6.48 µM

CCCCCCNC(=O)c1cc(NCc2cc(O)ccc2O)ccc1O
GI50 [1]: 6.53 µM
TGI [1]: 28.9 µM

CS(=O)c1nccc(-c2c(-c3ccc(F)c(OCc4ccc(F)cc4)c3)nc3sccn23)n1 (stereo not given)
GI50 [1]: 1.95 µM
TGI [1]: 4.33 µM

N#CC(=C1C=CC(=NO)C=C1)c1ccccc1
GI50 [1]: 0.289 µM
TGI [1]: 2.86 µM

CCN(CC)CCOc1ccc(-c2nc3cc(Cl)ccc3s2)cc1
GI50 [1]: 1.16 µM
TGI [1]: 2.46 µM

COc1ccc(CCOc2cc3c(cc2OC)CCN(C(=O)NCc2cocn2)C3c2ccc(C)cc2C)cc1 (stereo not given)
GI50 [1]: 0.289 µM
TGI [1]: 1.3 µM

C=COCCCOc1ccccc1
GI50 [1]: > 100 µM
TGI [1]: > 100 µM

CCN(CC)c1ccc2c(c1)OC(N)=C(C#N)C2c1cc(OC)c2c(c1)OCO2 (stereo not given)
GI50 [1]: 0.0328 µM
TGI [1]: 2.97 µM

Cc1nc2c(-c3cnc(N)nc3)nc(N3CCOCC3)nc2n1C(C)C
GI50 [1]: 0.105 µM and 0.0734 µM
TGI [1]: 0.647 µM and 0.398 µM

CC(C)CCN1c2nc(Nc3cc(F)c(O)c(F)c3)ncc2N(C)C(=O)C1C (stereo not given)
GI50 [1]: 5.02 µM
TGI [1]: 23.9 µM

[Cl][Hg][c]1cc(Br)cc(Br)c1
GI50 [1]: 1.37 µM
TGI [1]: 3.02 µM

COc1cc(C2CC(c3cccc(Br)c3)=NN2C(C)=O)cc(OC)c1OC (stereo not given)
GI50 [1]: 0.215 µM
TGI [1]: > 100 µM

N#Cc1c(NN)n(C2OC(CO)C(O)C2O)c2ncnc(N)c12 (stereo not given)
GI50 [1]: 0.0105 µM
TGI [1]: 0.0594 µM

CCCCCc1ccc(S(=O)(=O)Nc2cc(-c3csc(N(C)C(C)=O)n3)ccc2N2CCN(C)CC2)cc1
GI50 [2]: 2.29 µM
TGI [2]: 30.8 µM
GI50 [3]: 9.21 µM
TGI [3]: > 35.5 µM
GI50 [4]: 3.34 µM
TGI [4]: > 35.5 µM
GI50 [5]: 4.66 µM
TGI [5]: > 35.5 µM
GI50 [6]: 9.72 µM
TGI [6]: > 35.5 µM
GI50 [7]: 1.86 µM
TGI [7]: 13.5 µM
GI50 [8]: 1.02 µM
TGI [8]: 3.71 µM
GI50 [9]: 0.626 µM
TGI [9]: 1.27 µM
GI50 [10]: 3.93 µM
TGI [10]: > 35.5 µM
GI50 [11]: 15.2 µM
TGI [11]: > 35.5 µM
GI50 [12]: 1.25 µM
TGI [12]: 8.55 µM
GI50 [13]: 1.07 µM
TGI [13]: 3.67 µM
GI50 [14]: 1.04 µM
TGI [14]: > 35.5 µM
GI50 [15]: 0.807 µM
TGI [15]: 2.4 µM
GI50 [16]: 7.85 µM
TGI [16]: > 35.5 µM
GI50 [17]: 1.71 µM
TGI [17]: 15.4 µM
GI50 [18]: 5.25 µM
TGI [18]: 35.1 µM
GI50 [19]: 1.13 µM
TGI [19]: 3.66 µM
GI50 [20]: 9.77 µM
TGI [20]: > 35.5 µM
GI50 [21]: 1.01 µM
TGI [21]: > 35.5 µM
GI50 [22]: 3.61 µM
TGI [22]: > 35.5 µM
GI50 [23]: 3.93 µM
TGI [23]: > 35.5 µM
GI50 [24]: 5.26 µM
TGI [24]: 19.7 µM
GI50 [25]: 0.983 µM
TGI [25]: 4.09 µM
GI50 [26]: 1.81 µM
TGI [26]: 8.34 µM
GI50 [27]: 2.02 µM
TGI [27]: > 35.5 µM
GI50 [1]: 1.62 µM
TGI [1]: 7.5 µM
GI50 [28]: 1.4 µM
TGI [28]: > 35.5 µM
GI50 [29]: 8.43 µM
TGI [29]: 33.2 µM
GI50 [30]: 7.49 µM
TGI [30]: 31.7 µM
TGI [31]: 11.1 µM
GI50 [32]: 5.51 µM
TGI [32]: 14.7 µM
GI50 [33]: 5.75 µM
TGI [33]: > 35.5 µM
GI50 [34]: 1.12 µM
TGI [34]: 12.8 µM
GI50 [35]: 2.22 µM
TGI [35]: 29.8 µM
GI50 [36]: 16.5 µM
TGI [36]: > 35.5 µM
GI50 [37]: 10.2 µM
TGI [37]: > 35.5 µM
GI50 [38]: 2.2 µM
TGI [38]: > 35.5 µM
GI50 [39]: 1.32 µM
TGI [39]: > 35.5 µM
GI50 [40]: 2.11 µM
TGI [40]: 17.9 µM
GI50 [41]: 7.01 µM
TGI [41]: > 35.5 µM
GI50 [42]: 0.754 µM
TGI [42]: 2.12 µM
GI50 [43]: 1.21 µM
TGI [43]: 4.59 µM
GI50 [44]: 8.64 µM
TGI [44]: 30.2 µM
GI50 [45]: 6.76 µM
TGI [45]: 19.7 µM
GI50 [46]: 4.47 µM
TGI [46]: 16.9 µM
GI50 [47]: 7.29 µM
TGI [47]: 17.5 µM
GI50 [48]: 3.73 µM
TGI [48]: 28.1 µM
GI50 [49]: 10.9 µM
TGI [49]: > 35.5 µM
GI50 [50]: 3.6 µM
TGI [50]: 15 µM
GI50 [51]: 1.02 µM
TGI [51]: 3.6 µM
GI50 [52]: 2.95 µM
TGI [52]: > 35.5 µM
GI50 [53]: 7.43 µM
TGI [53]: 19.9 µM
GI50 [54]: 7.43 µM
TGI [54]: > 35.5 µM
GI50 [55]: 6.59 µM
TGI [55]: 26.9 µM
GI50 [56]: 6.2 µM
TGI [56]: 12.6 µM
GI50 [57]: 5.42 µM
TGI [57]: > 35.5 µM

Cn1c2ccccc2c2c3c(c4c5cc(Br)ccc5n(C)c4c21)C(=O)N(O)C3=O
GI50 [1]: 0.213 µM
TGI [1]: 0.51 µM

Cn1nc(N)c2cc([C@@H]3Nc4ccc5[nH]ncc5c4[C@H]4C5CCC(C5)[C@@H]34)ccc21 (stereo not given in full)
GI50 [1]: 0.235 µM
TGI [1]: 3.34 µM

O=C(Nc1ccc(Cl)cc1F)c1ccccc1O
GI50 [1]: 2.31 µM
TGI [1]: 6.42 µM

O=C(Cc1ccc(/C=C/C(=O)c2ncc[nH]2)cc1)Nc1cc(F)c(F)c(F)c1
GI50 [1]: 1.11 µM
TGI [1]: 4.53 µM

Clc1nc2ccccc2nc1CI
GI50 [1]: 2.99 µM
TGI [1]: 8.67 µM

C=C1CC[C@@H]2[C@](C)(COC(C)=O)[C@H](OC(C)=O)CC[C@@]2(C)[C@@H]1CC(Sc1ccccc1)C1=CCOC1=O (stereo not given in full)
GI50 [1]: 1.41 µM
TGI [1]: 3.26 µM
